Laboratory results taken from ChEMBL document CHEMBL1201862, “PubChem BioAssay data set” (2004).
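48-hour exposure; five concentrations; linearly interpolated endpoints. GI50: concentration for 50% inhibition of growth.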 Active and inactive are the calls of the source. Cut-off read from the data, not from the text of the source: active = GI50 up to about 1.1 µM and inactive = higher.

What was measured:
Test in all cases: growth of human tumour cells (NCI), 48 h
A498 = system: A498
A549 = system: A549
CCRF-CEM = system: CCRF-CEM
HCC 2998 = system: HCC 2998
HCT-116 = system: HCT-116
IGROV-1 = system: IGROV-1
K562 = system: K562
LOX IMVI = system: LOX IMVI
Malme-3M = system: Malme-3M
OVCAR-3 = system: OVCAR-3
OVCAR-8 = system: OVCAR-8
RPMI-8226 = system: RPMI-8226
SK-MEL-2 = system: SK-MEL-2
SK-MEL-5 = system: SK-MEL-5
SK-OV-3 = system: SK-OV-3
SN12C = system: SN12C
SNB-19 = system: SNB-19
SW-620 = system: SW-620
UACC-257 = system: UACC-257
COLO 205 = system: COLO 205

With COc1ccc(C(=O)Cc2ccc(Br)cc2)cc1OC the GI50 (A498) was 40.4 µM (inactive), the GI50 (A549) was > 100 µM (inactive) and the GI50 (CCRF-CEM) was > 100 µM (inactive). The GI50 (HCC 2998) was > 100 µM (inactive), the GI50 (HCT-116) was > 100 µM (inactive) and the GI50 (IGROV-1) was > 100 µM (inactive). The GI50 (K562) was > 100 µM (inactive), the GI50 (LOX IMVI) was > 100 µM (inactive) and the GI50 (Malme-3M) was > 100 µM (inactive). For the same molecule, the GI50 (OVCAR-3) was > 100 µM (inactive), the GI50 (OVCAR-8) was > 100 µM (inactive) and the GI50 (RPMI-8226) was > 100 µM (inactive). The GI50 (SK-MEL-2) was > 100 µM (inactive), the GI50 (SK-MEL-5) was > 100 µM (inactive) and the GI50 (SK-OV-3) was > 100 µM (inactive). The GI50 (SN12C) was > 100 µM (inactive), the GI50 (SNB-19) was > 100 µM (inactive) and the GI50 (SW-620) was > 100 µM (inactive). For the same molecule, the GI50 (UACC-257) was > 100 µM (inactive).
C/C(=N/NC(=S)N1CCCCCC1)c1ccccc1O was tested, and the GI50 (A498) was 23.8 µM (inactive), the GI50 (A549) was 6.05 µM (inactive) and the GI50 (CCRF-CEM) was 0.792 µM (active). The GI50 (COLO 205) was 7.98 µM (inactive), the GI50 (HCC 2998) was 7.4 µM (inactive) and the GI50 (HCT-116) was 3.11 µM (inactive). For the same molecule, the GI50 (IGROV-1) was 3.72 µM (inactive), the GI50 (K562) was 3.31 µM (inactive) and the GI50 (LOX IMVI) was 2.07 µM (inactive). For the same molecule, the GI50 (Malme-3M) was 2.59 µM (inactive), the GI50 (OVCAR-3) was 1.38 µM (inactive) and the GI50 (OVCAR-8) was 2.81 µM (inactive). For the same molecule, the GI50 (RPMI-8226) was 2.48 µM (inactive), the GI50 (SK-MEL-2) was 3.29 µM (inactive) and the GI50 (SK-MEL-5) was 4.05 µM (inactive). For the same molecule, the GI50 (SK-OV-3) was 12.7 µM (inactive), the GI50 (SN12C) was 4.63 µM (inactive) and the GI50 (SNB-19) was 42.2 µM (inactive). For the same molecule, the GI50 (SW-620) was 4.97 µM (inactive) and the GI50 (UACC-257) was 4.6 µM (inactive).
CN(C)[C@@H]1C(O)=C(C(=O)NCN2CCN(C(=N)NC(=N)N)CC2)C(=O)[C@@]2(O)C(O)=C3C(=O)c4c(O)cccc4[C@@](C)(O)[C@H]3C[C@@H]12 was tested, and the GI50 (A498) was 1.14 µM (inactive), the GI50 (CCRF-CEM) was 0.11 µM (active) and the GI50 (COLO 205) was 0.0798 µM (active). The GI50 (HCC 2998) was 0.337 µM (active), the GI50 (HCT-116) was 0.221 µM (active) and the GI50 (IGROV-1) was 0.207 µM (active). The GI50 (K562) was 0.0401 µM (active), the GI50 (LOX IMVI) was 0.156 µM (active) and the GI50 (Malme-3M) was 0.269 µM (active). The GI50 (OVCAR-3) was 0.287 µM (active), the GI50 (OVCAR-8) was 0.273 µM (active) and the GI50 (RPMI-8226) was 0.0315 µM (active). The GI50 (SK-MEL-2) was 0.113 µM (active), the GI50 (SK-MEL-5) was 0.183 µM (active) and the GI50 (SK-OV-3) was 1.29 µM (inactive). For the same molecule, the GI50 (SN12C) was 0.338 µM (active), the GI50 (SNB-19) was 0.314 µM (active) and the GI50 (SW-620) was 0.16 µM (active). For the same molecule, the GI50 (UACC-257) was 0.324 µM (active).
With CCC1(C)C=Cc2c(cc(O)c3c(=O)c4ccccc4n(C)c23)O1 (stereo unspecified) the GI50 (A498) was > 10 µM (inactive), the GI50 (A549) was > 10 µM (inactive) and the GI50 (CCRF-CEM) was > 10 µM (inactive). For the same molecule, the GI50 (COLO 205) was > 10 µM (inactive), the GI50 (HCC 2998) was > 10 µM (inactive) and the GI50 (HCT-116) was > 10 µM (inactive). For the same molecule, the GI50 (IGROV-1) was > 10 µM (inactive), the GI50 (K562) was > 10 µM (inactive) and the GI50 (LOX IMVI) was > 10 µM (inactive). For the same molecule, the GI50 (Malme-3M) was > 10 µM (inactive), the GI50 (OVCAR-3) was > 10 µM (inactive) and the GI50 (OVCAR-8) was > 10 µM (inactive). The GI50 (RPMI-8226) was > 10 µM (inactive), the GI50 (SK-MEL-2) was > 10 µM (inactive) and the GI50 (SK-MEL-5) was > 10 µM (inactive). The GI50 (SK-OV-3) was > 10 µM (inactive), the GI50 (SN12C) was > 10 µM (inactive) and the GI50 (SNB-19) was > 10 µM (inactive). The GI50 (SW-620) was > 10 µM (inactive) and the GI50 (UACC-257) was > 10 µM (inactive).
In the case of CCCOC1OC(CS(=O)(=O)O)C(OC(C)=O)C(OC(C)=O)C1OC(C)=O (stereo unspecified), the GI50 (A498) is reported as > 100 µM (inactive), the GI50 (CCRF-CEM) is reported as > 100 µM (inactive) and the GI50 (COLO 205) is reported as > 100 µM (inactive). For the same molecule, the GI50 (HCC 2998) was > 100 µM (inactive), the GI50 (HCT-116) was > 100 µM (inactive) and the GI50 (IGROV-1) was > 100 µM (inactive). The GI50 (K562) was > 100 µM (inactive), the GI50 (LOX IMVI) was > 100 µM (inactive) and the GI50 (Malme-3M) was > 100 µM (inactive). The GI50 (OVCAR-3) was > 100 µM (inactive), the GI50 (OVCAR-8) was > 100 µM (inactive) and the GI50 (RPMI-8226) was > 100 µM (inactive). The GI50 (SK-MEL-2) was > 100 µM (inactive), the GI50 (SK-MEL-5) was > 100 µM (inactive) and the GI50 (SK-OV-3) was > 100 µM (inactive). The GI50 (SN12C) was > 100 µM (inactive), the GI50 (SNB-19) was > 100 µM (inactive) and the GI50 (SW-620) was > 100 µM (inactive). For the same molecule, the GI50 (UACC-257) was > 100 µM (inactive).
In the case of O=C1N[C@@H]2C(=C[C@H](O)[C@@H](O)[C@H]2O)c2cc3c(c(O)c21)OCO3 [NARCICLASINE], the GI50 (A498) is reported as 0.045 µM (active), the GI50 (A549) is reported as 0.045 µM (active) and the GI50 (CCRF-CEM) is reported as 0.045 µM (active). For the same molecule, the GI50 (HCC 2998) was 0.045 µM (active), the GI50 (HCT-116) was 0.045 µM (active) and the GI50 (IGROV-1) was 0.045 µM (active). For the same molecule, the GI50 (K562) was 0.045 µM (active), the GI50 (LOX IMVI) was 0.045 µM (active) and the GI50 (Malme-3M) was 0.045 µM (active). For the same molecule, the GI50 (OVCAR-3) was 0.045 µM (active), the GI50 (OVCAR-8) was 0.045 µM (active) and the GI50 (RPMI-8226) was 0.045 µM (active). The GI50 (SK-MEL-2) was 0.045 µM (active), the GI50 (SK-MEL-5) was 0.045 µM (active) and the GI50 (SK-OV-3) was 0.045 µM (active). For the same molecule, the GI50 (SN12C) was 0.045 µM (active), the GI50 (SNB-19) was 0.045 µM (active) and the GI50 (SW-620) was 0.045 µM (active). The GI50 (UACC-257) was 0.045 µM (active).
